Experimental data as given in US10434086B2, “Combination therapies with curaxins” (Incuron, Inc., priority 2014, dated 2019).
Like-named read-outs stand apart in the source and are kept apart here.

Key:
HepG2 and Hep3B = details: HepG2 only (Hep3B is p53 null)
Description: Specifically, the Western blots monitored expression of spt16, SSRP1, p53, p21, P-ERK, ERK, Mcl-1, and GAPDH (control). Panel A corresponds to the tumor-bearing nude mice from the HepG2 study whereas Panel B corresponds to the tumor-bearing nude mice from the Hep3B study.
Specifically, the Western blots monitored the effect of drug treatment on expression of spt16, SSRP1, p53, p21, P-ERK, ERK, Mcl-1, and GAPDH (control) proteins, of which most are involved in cell cycle progression and regulation.

[1] = test system: HepG2 hepatocellular carcinoma tumors; test: HepG2 (sub-dose CBL0137) study; assay type: in vivo, nude mice
Description: (§1) Seventy and sixty female athymic nude mice were obtained for each H1975 Non-Small Cell Lung Cancer Xenograft study and split into treatment groups consisting of 10 animals per group (2 cages of 5 mice per cage).
(§2) Preparation and subcutaneous implantation of tumor pieces: HepG2 tumors (passage 2 for HepG2 study and passage 1 for HepG2 (sub-dose CLB0137) study) or Hep3B tumors (passage 1 for Hep3B study and passage 9 for Hep3B (sub-dose CLB0137) study) were propagated in athymic nude mice and harvested from euthanized mice when they reached ˜500-900 mm^3. PDA tumors (passage 6) were propagated in SCID mice (both flanks) and harvested from euthanized mice when they reached ˜600-700 mm^3 in size. Harvested tumors were transferred to a sterile Petri dish containing RPMI-10% FBS medium or D-PBS plus penicillin/streptomycin. Enough media was added to bathe the tumor in order to ensure the viability of the transplant material. Tumors were dissected into 2 mm×2 mm cubes using a sterile scalpel. Care was taken to make the pieces as uniform in size and shape as possible. Tumor pieces were implanted into recipient mice immediately after being prepared.
(§3) Tumor Size Measurements: Tumor size was measured by digital caliper in two dimensions (in mm): maximum length (l) and maximum width (w) taken perpendicular to one another. The measurements were used to calculate tumor volume according to the formula: tumor volume=(l×w2)/2 (w<l). The value obtained by this formula is also equal to the mass of the tumor in mg. Starting 2 days after tumor implantation, tumor measurements were made every 2-3 days prior to treatment initiation and then twice per week (e.g., on Day 1 (D1, the day of treatment initiation), D4, D8, D11, D15, D18, D22, D25, D29, D32, D36, D39, D43, D46, D50, D53 and D57). Tumor measurements were collected more frequently when tumor size approached the tumor size endpoint in order to prevent passing the endpoint between scheduled measurements.
(§4) Administration of test and control articles: Mice were administered the designated solutions when the mean tumor volume per treatment group was ˜45-200 mm^3.
(§5) The volume of the dosing solution administered orally or intravenously was 8 ml/kg of body weight, Intravenous injections were performed via the tail vein. Administration of drugs was done slowly without force on the syringe.
(§6) Monitoring and Sample Collection: Twice daily, mice were monitored for mortality and morbidity for the duration of the experiment. […] All abnormal observations were documented and semi-quantitative scores were assigned for “body condition,” “posture,” and “activity.” Scores of 4, 3, 2, and 1 were assigned to normal conditions (4), and slightly (3), moderately (2) and severely (1) abnormal conditions, respectively. Cages were taken to a laminar flow hood and opened in order to clearly assess mouse activity.
Data analysis: For all study groups, maximum tumor growth inhibition was calculated for Day 11, 13, or 15 (Day X). […] For each tumor, relative tumor size was calculated relative to its size on Day 1 when treatment was initiated (i.e., fold tumor growth). To calculate the maximum tumor growth inhibition for each tumor, the following equation was used: 100−(fold tumor growth drug-treated Day X/mean fold tumor growth vehicle-treated Day X)*100. Differences in tumor sizes between groups were determined using ANOVA analysis (GraphPad Prism 5 Software) where “*” refers to P=0.01-0.05 (significant), “**” refers to P=0.001-0.01 (very significant) and “***” refers to P<0.001 (extremely significant), Differences that were not statistically significant are indicated with “ns”. […] Tumor growth delay (T−C) was calculated by subtracting the median time for the control to reach the 1000 mm^3 size endpoint from that of the median time for the treated groups to reach the size endpoint.

[2] = test system: Hep3B hepatocellular carcinoma tumors; assay type: in vivo, nude mice
Description: as §1, §2, §3, §4
The volume of the dosing solution administered orally or intravenously was 8 ml/kg of body weight, Intravenous injections were performed via the tail vein. […]
(§7) Monitoring and Sample Collection: Twice daily, mice were monitored for mortality and morbidity for the duration of the experiment. […] All abnormal observations were documented and semi-quantitative scores were assigned for “body condition,” “posture,” and “activity.” Scores of 4, 3, 2, and 1 were assigned to normal conditions (4), and slightly (3), moderately (2) and severely (1) abnormal conditions, respectively. […]
(§8) Data analysis: For all study groups, maximum tumor growth inhibition was calculated for Day 11, 13, or 15 (Day X). […] For each tumor, relative tumor size was calculated relative to its size on Day 1 when treatment was initiated (i.e., fold tumor growth). […] Differences in tumor sizes between groups were determined using ANOVA analysis (GraphPad Prism 5 Software) where “*” refers to P=0.01-0.05 (significant), “**” refers to P=0.001-0.01 (very significant) and “***” refers to P<0.001 (extremely significant), Differences that were not statistically significant are indicated with “ns”. […] Tumor growth delay (T−C) was calculated by subtracting the median time for the control to reach the 1000 mm^3 size endpoint from that of the median time for the treated groups to reach the size endpoint.

[3] = test system: NF-κB target genes (IL-8 and TNF); test: Real-time PCR of NF-κB target genes (IL-8 and TNF) in HepG2 and Hep3B; assay type: cell-based; details: 2 h after exposure; basal and TNF-induced; both HCC cell lines
[4] = test system: Hep3B hepatocellular carcinoma tumors; test: Hep3B (sub-dose CBL0137) study; assay type: in vivo, nude mice
Description: as §1, §2
Tumor Size Measurements: Tumor size was measured by digital caliper in two dimensions (in mm): maximum length (l) and maximum width (w) taken perpendicular to one another. The measurements were used to calculate tumor volume according to the formula: tumor volume=(l×w2)/2 (w<l). The value obtained by this formula is also equal to the mass of the tumor in mg. […]
as §7, §8

[5] = test system: HepG2 hepatocellular carcinoma tumors; test: HepG2 study: CBL0137/sorafenib against HepG2 HCC tumor engrafts; assay type: in vivo, nude mice
Description: as §1, §2, §3, §4, §5, §6
Data analysis: For all study groups, maximum tumor growth inhibition was calculated for Day 11, 13, or 15 (Day X). […] For each tumor, relative tumor size was calculated relative to its size on Day 1 when treatment was initiated (i.e., fold tumor growth). To calculate the maximum tumor growth inhibition for each tumor, the following equation was used: 100−(fold tumor growth drug-treated Day X/mean fold tumor growth vehicle-treated Day X)*100. Differences in tumor sizes between groups were determined using ANOVA analysis (GraphPad Prism 5 Software) where “*” refers to P=0.01-0.05 (significant), “**” refers to P=0.001-0.01 (very significant) and “***” refers to P<0.001 (extremely significant), Differences that were not statistically significant are indicated with “ns”.

[6] = median time to reach tumor size endpoint, treated minus control

## CNC(=O)c1cc(Oc2ccc(NC(=O)Nc3ccc(Cl)c(C(F)(F)F)c3)cc2)ccn1 [sorafenib]
HepG2 and Hep3B
  induction of p53 and p21 by CBL0137 (Western blot): blocked this induction
[1]; Day 13, vehicle 13.2-fold
  mean change in tumor volume versus Day 1: 3.2 fold
[1]; HepG2 (sub-dose CBL0137) study summary
  antitumor efficacy (in words): effectively suppressed HepG2 tumor growth
[1]; between Days 1 and 13
  tumor growth inhibition: 76%
[1]; by extrapolation from exponential growth curves, vehicle 12.6 days
  median time to reach the tumor size endpoint: 29.6 days
[1]; [6]
  Tumor growth delay (T−C): 17 days
[1]; sorafenib 30 mg/kg po daily, CBL0137 60 mg/kg iv Q4d, 4 weeks, vehicle 13 days
  median survival time (MST): 27.5 days
[2]; Day 11
  tumor growth inhibition: 67.2%
[2]; Day 11, size relative to vehicle-treated tumors
  T/C %: 33.4%
[2]; Day 11, vehicle 9.08-fold
  mean change in tumor volume versus Day 1: 2.98 fold
[2]; Hep3B study summary
  antitumor efficacy (in words): efficacious in suppressing growth of Hep3B engrafts
[2]; sorafenib 30 mg/kg po daily, CBL0137 60 mg/kg iv Q4d, 4 weeks, vehicle 11 days
  median survival time (MST): 25 days
[3]
  expression of NF-κB target genes (IL-8 and TNF): have an effect on expression of NF-κB target genes, albeit less than CBL0137
[4]; Day 15, vehicle 21.0-fold
  mean change in tumor volume versus Day 1: 10.2 fold
[4]; between Days 1 and 15
  tumor growth inhibition: 51.4%
[4]; dT, time to endpoint, growth delay, T/C %
  antitumor efficacy (in words): stronger beneficial effect
[4]; sorafenib 30 mg/kg po daily, CBL0137 50 mg/kg iv Q4d, 4 weeks, vehicle 14.5 days
  median survival time (MST): 21.5 days
[5]; Day 15, sorafenib 15 mg/kg po daily, CBL0137 70 mg/kg iv Q4d
  T/C %: 72.6%
[5]; Day 15, sorafenib 15 mg/kg po daily, CBL0137 70 mg/kg iv Q4d, vehicle 9.0-fold
  mean change in tumor volume versus Day 1: 8.4 fold
[5]; HepG2 study summary
  antitumor efficacy (in words): had no effect against HepG2 tumor growth
[5]; HepG2 study, sorafenib 15 mg/kg po daily, CBL0137 70 mg/kg iv Q4d, 4 weeks, vehicle 15 days
  median survival time (MST): 15 days
[5]; [6]
  Tumor growth delay (T−C): 5.65 days
[5]; sorafenib 15 mg/kg po daily, CBL0137 70 mg/kg iv Q4d, vehicle 0/16
  tumors that grew showing some degree of regression during the course of treatment: 0/14
